Reference: patent US10844002B2, “Lipids and lipid compositions for the delivery of active agents” (priority 2014, dated 2020)
Marks after values point to notes of the source that are not given here.

Legend:
RSV F protein = assay type: in vivo; details: Table 4, BALB/c mice, intramuscular; for Log10(IgG titer), RNA (RSV-F), 2 weeks post 2nd immunization: 100 ng dose; for Log10(IgG titer), 1 ng RNA (RSV-F), 2 weeks post 2nd immunization: 1 ng vA375 replicon in LNP, days 0 and 21
[1] = Encapsulation efficiency of RNA replicons (Quant-iT RiboGreen); assay type: physicochemical; details: LNP 40% cationic lipid, 10% DSPC, 48% cholesterol, 2% PEG-DMG; RNA replicon
Protocol: Briefly, lipids were dissolved in ethanol (2m1), a RNA replicon was dissolved in buffer (2 ml, 100 mM sodium citrate, pH 6) and these were mixed with 2 ml of buffer followed by 1 hour of equilibration. The mixture was then dialized overnight against 1×PBS. The resulting product contained liposomes, with ˜70-95% encapsulation efficiency.
The percentage of encapsulated RNA and RNA concentration were determined by Quant-iT RiboGreen RNA reagent kit (Invitrogen), following manufacturer's instructions. The ribosomal RNA standard provided in the kit was used to generate a standard curve. LNPs were diluted 10× or 100× in 1× TE buffer (from kit) before addition of the dye. Separately, LNPs were diluted 10× or 100× in 1× TE buffer containing 0.5% Triton X before addition of the dye (to disrupt the LNPs and thus to assay total RNA). Thereafter an equal amount of dye was added to each solution and then ˜180 μL of each solution after dye addition was loaded in duplicate into a 96 well tissue culture plate. The fluorescence (Ex 485 nm, Em 528 nm) was read on a microplate reader. All LNP formulations were dosed in vivo based on the encapsulated amount of RNA.

[2] = Measurement of mRNA encapsulation in lipid nanoparticles (Quant-iT Ribogreen); assay type: physicochemical; details: LNP cationic lipid/DSPC/cholesterol/stealth lipid, N:P 4:1, leptin mRNA
Protocol: All equipment and disposable supplies are certified free of RNase activity by the manufacturer or rendered RNase free by use of the RNaseZap reagent (LifeTechnologies). mRNA is encapsulated at a cationic lipid amine to mRNA phosphate (N:P) molar ratio of 4:1. Lipids (cationic lipid, DSPC, cholesterol and lipidated PEG or stealth lipid) are dissolved in ethanol. The molar ratios are 40:10:38:2, respectively. The mixture is sonicated briefly, then gently agitated for 5 minutes and then maintained at 37° C. until use. mRNA is exchanged into citrate buffer pH 5.8-6.0 by use of Amicon Ultra-15 centrifugal concentrators, and the final concentration is adjusted to 0.5 mg/ml and held at 37° C. until use. An equal volume of lipids in ethanol, mRNA in citrate buffer, and citrate buffer alone are drawn into disposable syringes. Tubing leading from syringes containing lipids and mRNA are attached to the T junction, and tubing leading from the syringe containing citrate buffer alone is paired with the tubing exiting the T-junction over a collection vessel containing a stir bar on an active stir plate. Syringes are placed in a syringe pump set to expel contents at a flow rate of 1 ml per minute.
The pump is activated, and the collected mRNA in lipid nanoparticles is transferred to SnakeSkin dialysis tubing (10,000 MWCO, Thermo Scientific). Material is dialyzed against RNAse- and pyrogen-free 1× phosphate buffered saline overnight at 4° C.
Percent encapsulation of mRNA in lipid nanoparticles is determined using the Quant-iT Ribogreen RNA Assay kit (Life Technologies). The LNP-mRNA suspension is assayed in buffer (mRNA outside the particle), and buffer plus Triton X-100 detergent (total mRNA). The difference calculated is the mRNA inside the particle. Prepare a 1000 ng/mL stock from the RNA provided in the kit and use this to generate a standard curve (0 ng/ml, 15.63-1000 ng/ml) in TE and TE+0.75% Triton X-100. Prepare LNP-mRNA samples in TE buffer and TE buffer+0.75% Triton X-100 with appropriate dilution so that reading is in the range of standard curve (400-2,000 fold). In a 384-well plate (Costar non-treated #3573) add 0.04 ml of standard (in duplicate) or sample (in triplicate) per well. Dilute Ribogreen reagent 240-fold in TE buffer and add 0.06 ml per well. Mix contents of wells and measure fluorescence (excitation=480 nm, emission=520 nm). Subtract background values (no RNA) from standard and test sample values and determine the concentrations of RNA in the samples using the standard curves. Determine the percent encapsulation of the sample by dividing the difference in concentrations between sample+triton and sample in buffer alone by the sample+triton concentration.

[3] = Characterization of LNP formulations: Z average particle diameter and polydispersity index; assay type: physicochemical; details: LNP formulation; for Zav (nm): Z average particle diameter; for polydispersity: polydispersity index
Source text: The lipid nanoparticles have a size of about 1 to about 2,500 nm, about 1 to about 1,500 nm, about 1 to about 1,000 nm, in a sub-embodiment about 50 to about 600 nm, in a sub-embodiment about 50 to about 400 nm, in a sub-embodiment about 50 to about 250 nm, and in a sub-embodiment about 50 to about 150 nm. Unless indicated otherwise, all sizes referred to herein are the average sizes (diameters) of the fully formed nanoparticle, as measured by dynamic light scattering on a Malvern Zetasizer. The nanoparticle sample is diluted in phosphate buffered saline (PBS) so that the count rate is approximately 200-400 kcts. The data is presented as a weighted average of the intensity measure.

Structure (SMILES) | Log10(IgG titer), RNA (RSV-F), 2 weeks post 2nd immunization (RSV F protein) | Encapsulation efficiency (RNA %) [1] [%] | % encapsulation (mRNA Leptin) [2] [%] | Log10(IgG titer), 1 ng RNA (RSV-F), 2 weeks post 2nd immunization (RSV F protein) | Zav (nm) [3] [nm] | polydispersity [3]
CCCCC/C=C\C/C=C\CCCCCCCCOc1ccc(OCCCCCCCC/C=C\C/C=C\CCCCC)c(COC(=O)CCN(C)C)c1 [Example 2, 2,5-bis((9Z,12Z)-octadeca-9,12-dien-1-yloxy)benzyl 3-(dimethylamino)propanoate] | 4.14 (100 ng dose)* | 13.1 |  |  |  | 
CCCCC/C=C\C/C=C\CCCCCCCCOc1ccc(OCCCCCCCC/C=C\C/C=C\CCCCC)c(COC(=O)OCCCN(C)C)c1 [Example 3, 2,5-bis((9Z,12Z)-octadeca-9,12-dienyloxy)benzyl 3-(dimethylamino)propyl Carbonate] | 4.77 (100 ng dose)* | 85.0 |  |  |  | 
CCCCCCCCCC(=O)OCCCCCCCCOc1ccc(OCCCCCCCCOC(=O)CCCCCCCCC)c(COC(=O)CCN(C)C)c1 [Example 5] |  |  | 59.0 |  |  | 
CCCCCCCCCC(=O)OCCCCCCCCOc1ccc(OCCCCCCCCOC(=O)CCCCCCCCC)c(COC(=O)C2CCN(C)CC2)c1 [Example 6, ((2-(((1-methylpiperidine-4-carbonyl)oxy)methyl)-1,4-phenylene)bis(oxy))bis(octane-8,1-diyl) bis(decanoate)] |  | 71.3 |  | 4.25 |  | 
CCCCCCCCCC(=O)OCCCCCCCCOc1ccc(OCCCCCCCCOC(=O)CCCCCCCCC)c(COC(=O)CCCN(C)C)c1 [Example 7, ((2-(((4-(dimethylamino)butanoyl)oxy)methyl)-1,4-phenylene)bis(oxy))bis(octane-8,1-diyl) bis(decanoate)] |  | 85.6 | 95.4 | 4.37 | 100.7 | 0.096
CCCCCCCCCC(=O)OCCCCCCCCOc1ccc(OCCCCCCCCOC(=O)CCCCCCCCC)c(COC(=O)C2CCN(C(C)C)CC2)c1 [Example 9, ((2-(((1-isopropylpiperidine-4-carbonyl)oxy)methyl)-1,4-phenylene)bis(oxy))bis(octane-8,1-diyl) bis(decanoate)] |  | 69.1 |  |  | 182.6 | 0.369
CCCCCCCCCC(=O)OCCCCCCCCOc1ccc(OCCCCCCCCOC(=O)CCCCCCCCC)c(COC(=O)OCCCN(C)C)c1 [Example 12, ((2-((((3-(dimethylamino)propoxy)carbonyl)oxy)methyl)-1,4-phenylene)bis(oxy))bis(octane-8,1-diyl) bis(decanoate)] |  | 89.8 |  | 4.40 | 97.3 | 0.116
CCCCCCCCCC(=O)OCCCCCCCCOc1ccc(OCCCCCCCCOC(=O)CCCCCCCCC)c(COC(=O)OCCCN(CC)CC)c1 [Example 13, ((2-((((3-(diethylamino)propoxy)carbonyl)oxy)methyl)-1,4-phenylene)bis(oxy))bis(octane-8,1-diyl) bis(decanoate)] |  | 92.1 |  |  |  | 
CCCCC/C=C\C/C=C\CCCCCCCCOc1cc(COC(=O)OCCCN(C)C)c(OCCCCCCCC/C=C\C/C=C\CCCCC)cc1C [Example 14, 3-(dimethylamino)propyl 4-methyl-2,5-bis((9Z,12Z)-octadeca-9,12-dien-1-yloxy)benzyl Carbonate] |  | 78.3 | 77.9 | 3.85 | 127.7 | 0.102
CCCCC/C=C\C/C=C\CCCCCCCCOc1cc(COC(=O)OCCCCN(C)C)c(OCCCCCCCC/C=C\C/C=C\CCCCC)cc1C [Example 15, 4-(dimethylamino)butyl 4-methyl-2,5-bis((9Z,12Z)-octadeca-9,12-dienyloxy)benzyl Carbonate] |  | 82.6 |  | 2.81 | 138.8 | 0.210
CCCCCCCCOC(CCC(=O)OCCCOc1ccc(OCCCOC(=O)CCC(OCCCCCCCC)OCCCCCCCC)c(COC(=O)CCCN(C)C)c1)OCCCCCCCC [Example 20, ((2-(((4-(Dimethylamino)butanoyl)oxy)methyl)-1,4-phenylene)bis(oxy))bis(propane-3,1-diyl) bis(4,4-bis(octyloxy)butanoate)] |  |  | 88.4 |  |  | 
CCCCCCCCOC(CCC(=O)OCCCCCOc1ccc(OCCCCCOC(=O)CCC(OCCCCCCCC)OCCCCCCCC)c(COC(=O)CCCN(C)C)c1)OCCCCCCCC [Example 21, ((2-(((4-(Dimethylamino)butanoyl)oxy)methyl)-1,4-phenylene)bis(oxy))bis(pentane-5,1-diyl) bis(4,4-bis(octyloxy)butanoate)] |  |  | 79.8 |  |  | 
CCCCCCCCOC(CCC(=O)OCCCCCOc1ccc(OCCCCCOC(=O)CCC(OCCCCCCCC)OCCCCCCCC)c(COC(=O)CCCN(CC)CC)c1)OCCCCCCCC [Example 22, ((2-(((4-(diethylamino)butanoyl)oxy)methyl)-1,4-phenylene)bis(oxy))bis(pentane-5,1-diyl) bis(4,4-bis(octyloxy)butanoate)] |  |  | 86.0 |  |  | 
CCCCCCCCOC(CCC(=O)OCCCCCOc1ccc(OCCCCCOC(=O)CCC(OCCCCCCCC)OCCCCCCCC)c(COC(=O)C2(C)CCN(C)CC2)c1)OCCCCCCCC [Example 23, ((2-(((1,4-Dimethylpiperidine-4-carbonyl)oxy)methyl)-1,4-phenylene)bis(oxy))bis(pentane-5,1-diyl) bis(4,4-bis(octyloxy)butanoate)] |  |  | 84.3 |  |  | 
CCCCCCCCCC(=O)OCCCCCCCCOc1ccc(COC(=O)C2(C)CCN(C)CC2)c(OCCCCCCCCOC(=O)CCCCCCCCC)c1 [Example 26, ((4-(((1,4-Dimethylpiperidine-4-carbonyl)oxy)methyl)-1,3-phenylene)bis(oxy))bis(octane-8,1-diyl) bis(decanoate)] |  |  | 90.8 |  |  | 
CCCCCCCCCC(=O)OCCCCCCCCOc1ccc(COC(=O)CCCN(C)C)c(OCCCCCCCCOC(=O)CCCCCCCCC)c1 [Example 27, ((4-(((4-(Dimethylamino)butanoyl)oxy)methyl)-1,3-phenylene)bis(oxy))bis(octane-8,1-diyl) bis(decanoate)] |  |  | 95.2 |  |  | 
CCCCCCCCCC(=O)OCCCCCCCCOc1ccc(COC(=O)CCCN(CC)CC)c(OCCCCCCCCOC(=O)CCCCCCCCC)c1 [Example 28, ((4-(((4-(Diethylamino)butanoyl)oxy)methyl)-1,3-phenylene)bis(oxy))bis(octane-8,1-diyl) bis(decanoate)] |  |  | 93.6 |  |  | 
